# From US3949090A, “Methods and compositions for improving feed efficiency in ruminants using dithiooxamide” (SmithKline Corporation, priority 1974, dated 1976)
# Like-named read-outs stand apart in the source and are kept apart here.
# Columns and labels:
# [1] = tested on: Microbial Deaminase (strained rumen fluid); assay: In vitro microbial deaminase inhibition (rumen fluid, alfalfa hay, grain mixture; 4 hours); type: cell-based; conditions: for MDI (%): 240 min
# Method: (§1) The in vitro fermentation system contained 75 ml. strained rumen fluid, 200 mg, alfalfa hay, 800 mg. of a crude protein grain mixture, 0.8 to 1.6 mM of each of 10 essential amino acids (threonine, valine, methionine, isoleucine, leucine, phelylalanine, tryptophan, lysine and arginine), and 0 to 50 ppm dithiooxamide. Flasks were incubated for 4 hours with effects upon amino acid deamination assessed as described for the previous system. Using standard chromatographic techniques, effects upon methanogenesis and upon the pattern of volatile fatty acid production were determined.
# (§2) ^1 In vitro fermentation system contained 75 ml. strained rumen fluid
# (§3) 200 mg. alfalfa hay, 800 mg. grain mixture (16% crude protein) and 1.6 mM
# (§4) of each of ten essential amino acids. Flasks were incubated for four
# (§5) 200 mg. alfalfa hay, 800 mg. grain mixture (16% crude protein) and 0.8 mM
# [2] = tested on: rumen microbial deamination; assay: In vivo effects upon amino acid deamination in rumen fistulated cattle; conditions: for Quantity of amino acids in the rumen: per rumen
# Method: Rumen fistulated cattle were fed a pelleted 60% concentrate diet. To conduct the test, animals received ruminal doses of a mixture of free amino acids to provide 338 mMoles of total free amino acids (threonine 4.5 g., methionine 6.0 g., isoleucine 5.0 g., leucine 5.0 g., phenylalanine 6.5 g., lysine 7.5 g., histidine 8.5 g.), 50 g. of a soluble rumen marker, polyethylene glycol (PEG) and 0 to 4 g. dithiooxamide. Total amino acid concentration was determined by the procedure of Borchers [Anal. Chem., 31 (7): 1179]. Activity was assessed as changes, with respect to time, of the quantity of total free amino acids in the rumen. Inhibition of rumen microbial deamination results in a greater quantity of free amino acids in the rumen.
# ^1 Polyethylene glycol was used as a marker to estimate rumen volume
# and correct for changes in amino acid concentration due to changes in
# rumen volume during the six hour experiment.
# ^2 mMoles of amino acid per rumen.
# [3] = tested on: gas production (strained rumen fluid); assay: In vitro gas production; type: cell-based; conditions: Table III, control 65
# Method: as §1, §2, §5, §4
# [4] = tested on: Microbial Deaminase (strained rumen fluid); assay: In vitro effects upon amino acid deamination (rumen fluid, starch, urea; 5 hours); type: cell-based
# Method: The in vitro fermentation system contained 50 ml. strained rumen fluid, 8 mM urea, 1 g. starch, 1.8 mM of each of 10 essential amino acids (threonine, valine, methionine, isoleucine, leucine, phenylalanine, tryptophan, lysine and arginine) and 0 to 100 ppm dithiooxamide. Flasks were incubated under a CO2 atmosphere for 5 hours with total amino acids assayed prior to and at the end of the fermentation by the method of Borchers [Anal. Chem., 31, (7):1179]. Percent apparent inhibition of deamination in treated flasks was calculated relative to control flasks without added dithiooxamide. Apparent inhibition of deamination in excess of 100% may be observed because of the liberation of amino acids from proteinaceous materials contained in rumen fluid.
# Inhibition of deamination (%) =
# Control deamination (%) - Treated deamination (%)
# Control deamination (%)
# ^1 In vitro fermentation system contained 50 ml. strained rumen fluid
# 1 g. starch, 8 mM urea and 1.8 mM of each of ten essential amino acids.
# Flasks were incubated under a CO2 atmosphere for five hours.
# [5] = tested on: animals; assay: Toxicity statement (animals); conditions: when used as described
# [6] = tested on: volatile fatty acid production (strained rumen fluid); assay: In vitro volatile fatty acid production; type: cell-based
# Method: as §1, §2, §3, §4, §5
# [7] = tested on: methanogenesis (strained rumen fluid); assay: In vitro effects upon methanogenesis; type: cell-based
# Method: as §1, §2, §3, §4, §5
# [8] = Table III, varying concentrations of cobalt and copper
smiles,measurement,setting,value
"NC(=S)C(N)=S [Dithiooxamide, dithiooxamide]",inhibition at 5 ppm,"[1]; 4 h, Table II, 5 ppm dithiooxamide, 4 h, read-out: MDI (%)",6%
same,inhibition at 10 ppm,"[1]; 4 h, Table II, 10 ppm dithiooxamide, 4 h, read-out: MDI (%)",68%
same,inhibition at 25 ppm,"[1]; 4 h, Table II, 25 ppm dithiooxamide, 4 h, read-out: MDI (%)",65%
same,inhibition at 50 ppm,"[1]; 4 h, Table II, 50 ppm dithiooxamide, 4 h, read-out: MDI (%)",94%
same,inhibition at 25 ppm,"[1]; 4 h, Table III, dithiooxamide 25 ppm, no added cobalt or copper, read-out: MDI (%)",78%
same,inhibition of microbial deamination of amino acids (in words),[1]; Table II,effective inhibitor of microbial deamination of amino acids
same,MDI (%),"[1]; Table III, dithiooxamide 25 ppm + cobalt sulfate .013 ppm",81%
same,MDI (%),"[1]; Table III, dithiooxamide 25 ppm + copper sulfate .333 ppm",90%
same,Deaminase inhibition on adding cobalt and copper (in words),[1]; [8],not affected by adding varying concentrations of cobalt and copper
same,Quantity of amino acids in the rumen,"[2]; 0.5 g dithiooxamide ruminal dose, 0 h after dosing, control 338",338 mmol
same,Quantity of amino acids in the rumen,"[2]; 0.5 g dithiooxamide ruminal dose, 3 h after dosing, control 152",192 mmol
same,Quantity of amino acids in the rumen,"[2]; 0.5 g dithiooxamide ruminal dose, 6 h after dosing, control 47",78 mmol
same,Quantity of amino acids in the rumen,"[2]; 1.0 g dithiooxamide ruminal dose, 0 h after dosing, control 338",338 mmol
same,Quantity of amino acids in the rumen,"[2]; 1.0 g dithiooxamide ruminal dose, 3 h after dosing, control 152",198 mmol
same,Quantity of amino acids in the rumen,"[2]; 1.0 g dithiooxamide ruminal dose, 6 h after dosing, control 47",162 mmol
same,Quantity of amino acids in the rumen,"[2]; 2.0 g dithiooxamide ruminal dose, 0 h after dosing, control 338",338 mmol
same,Quantity of amino acids in the rumen,"[2]; 2.0 g dithiooxamide ruminal dose, 3 h after dosing, control 152",209 mmol
same,Quantity of amino acids in the rumen,"[2]; 2.0 g dithiooxamide ruminal dose, 6 h after dosing, control 47",218 mmol
same,Quantity of amino acids in the rumen,"[2]; 4.0 g dithiooxamide ruminal dose, 0 h after dosing, control 338",338 mmol
same,Quantity of amino acids in the rumen,"[2]; 4.0 g dithiooxamide ruminal dose, 3 h after dosing, control 152",270 mmol
same,Quantity of amino acids in the rumen,"[2]; 4.0 g dithiooxamide ruminal dose, 6 h after dosing, control 47",308 mmol
same,prevention of degradation of free amino acids in the rumen (in words),[2]; Table IV,effective agent in preventing his degradation and increasing the size of the pool of amino acids in the rumen
same,Gas Production,[3]; dithiooxamide 25 ppm + cobalt sulfate .013 ppm,82 cc
same,Gas Production,[3]; dithiooxamide 25 ppm + cobalt sulfate .066 ppm,86 cc
same,Gas Production,[3]; dithiooxamide 25 ppm + copper sulfate .067 ppm,85 cc
same,Gas Production,[3]; dithiooxamide 25 ppm + copper sulfate .333 ppm,83 cc
same,Gas Production,"[3]; dithiooxamide 25 ppm, no added cobalt or copper",85 cc
same,inhibition at 2.5 ppm,"[4]; 2.5 ppm dithiooxamide, 5 h, 1 replication, read-out: MDI (%)",0%
same,inhibition at 5 ppm,"[4]; 5 ppm dithiooxamide, 5 h, 4 replications, read-out: MDI (%)",35%
same,inhibition at 7.5 ppm,"[4]; 7.5 ppm dithiooxamide, 5 h, 1 replication, read-out: MDI (%)",71%
same,inhibition at 10 ppm,"[4]; 10 ppm dithiooxamide, 5 h, 4 replications, read-out: MDI (%)",57%
same,inhibition at 25 ppm,"[4]; 25 ppm dithiooxamide, 5 h, 4 replications, read-out: MDI (%)",62%
same,inhibition at 50 ppm,"[4]; 50 ppm dithiooxamide, 5 h, 2 replications, read-out: MDI (%)",84%
same,inhibition at 75 ppm,"[4]; 75 ppm dithiooxamide, 5 h, 1 replication, read-out: MDI (%)",100%
same,inhibition at 100 ppm,"[4]; 100 ppm dithiooxamide, 5 h, 1 replication, read-out: MDI (%)",117%
same,inhibition of microbial deamination of amino acids (in words),"[4]; Table I, 7.5 to 100 ppm",effective inhibitor of microbial deamination of amino acids over a wide concentration range
same,toxicity (in words),[5],relatively nontoxic
same,pattern of volatile fatty acids (in words),[6]; Table II,increased molar percentages of propionate and butyrate at the expense of acetate
same,volatile fatty acid carbon (in words),[6]; Table II,slight decrease in volatile fatty acid carbon
same,"Volatile Fatty Acids (molar distribution, %): Propionate","[6]; Table II, 5 ppm dithiooxamide, 4 h, control 9",10%
same,"Volatile Fatty Acids (molar distribution, %): Butyrate","[6]; Table II, 5 ppm dithiooxamide, 4 h, control 22",24%
same,"Volatile Fatty Acids (molar distribution, %): Acetate","[6]; Table II, 5 ppm dithiooxamide, 4 h, control 69",66%
same,Volatile Fatty Acid Carbon,"[6]; Table II, 5 ppm dithiooxamide, 4 h, control 128",127 μ moles/ml.
same,"Volatile Fatty Acids (molar distribution, %): Propionate","[6]; Table II, 10 ppm dithiooxamide, 4 h, control 9",15%
same,"Volatile Fatty Acids (molar distribution, %): Butyrate","[6]; Table II, 10 ppm dithiooxamide, 4 h, control 22",36%
same,"Volatile Fatty Acids (molar distribution, %): Acetate","[6]; Table II, 10 ppm dithiooxamide, 4 h, control 69",49%
same,Volatile Fatty Acid Carbon,"[6]; Table II, 10 ppm dithiooxamide, 4 h, control 128",108 μ moles/ml.
same,"Volatile Fatty Acids (molar distribution, %): Propionate","[6]; Table II, 25 ppm dithiooxamide, 4 h, control 9",15%
same,"Volatile Fatty Acids (molar distribution, %): Butyrate","[6]; Table II, 25 ppm dithiooxamide, 4 h, control 22",36%
same,"Volatile Fatty Acids (molar distribution, %): Acetate","[6]; Table II, 25 ppm dithiooxamide, 4 h, control 69",49%
same,Volatile Fatty Acid Carbon,"[6]; Table II, 25 ppm dithiooxamide, 4 h, control 128",108 μ moles/ml.
same,"Volatile Fatty Acids (molar distribution, %): Propionate","[6]; Table II, 50 ppm dithiooxamide, 4 h, control 9",15%
same,"Volatile Fatty Acids (molar distribution, %): Butyrate","[6]; Table II, 50 ppm dithiooxamide, 4 h, control 22",38%
same,"Volatile Fatty Acids (molar distribution, %): Acetate","[6]; Table II, 50 ppm dithiooxamide, 4 h, control 69",47%
same,Volatile Fatty Acid Carbon,"[6]; Table II, 50 ppm dithiooxamide, 4 h, control 128",102 μ moles/ml.
same,patterns of volatile fatty acid production (in words),[6]; Table III,Alterations in patterns of volatile fatty acid production were again observed
same,total volatile fatty acid carbon production (in words),[6]; Table III,no effects on total volatile fatty acid carbon production
same,"Volatile Fatty Acids (molar distribution, %): Propionate","[6]; Table III, dithiooxamide 25 ppm + cobalt sulfate .013 ppm, control 15",20%
same,"Volatile Fatty Acids (molar distribution, %): Butyrate","[6]; Table III, dithiooxamide 25 ppm + cobalt sulfate .013 ppm, control 21",39%
same,"Volatile Fatty Acids (molar distribution, %): Acetate","[6]; Table III, dithiooxamide 25 ppm + cobalt sulfate .013 ppm, control 64",41%
same,Volatile Fatty Acid Carbon,"[6]; Table III, dithiooxamide 25 ppm + cobalt sulfate .013 ppm, control 125",127 μ moles/ml.
same,"Volatile Fatty Acids (molar distribution, %): Propionate","[6]; Table III, dithiooxamide 25 ppm + cobalt sulfate .066 ppm, control 15",20%
same,"Volatile Fatty Acids (molar distribution, %): Butyrate","[6]; Table III, dithiooxamide 25 ppm + cobalt sulfate .066 ppm, control 21",37%
same,"Volatile Fatty Acids (molar distribution, %): Acetate","[6]; Table III, dithiooxamide 25 ppm + cobalt sulfate .066 ppm, control 64",43%
same,Volatile Fatty Acid Carbon,"[6]; Table III, dithiooxamide 25 ppm + cobalt sulfate .066 ppm, control 125",133 μ moles/ml.
same,"Volatile Fatty Acids (molar distribution, %): Propionate","[6]; Table III, dithiooxamide 25 ppm + copper sulfate .067 ppm, control 15",21%
same,"Volatile Fatty Acids (molar distribution, %): Butyrate","[6]; Table III, dithiooxamide 25 ppm + copper sulfate .067 ppm, control 21",41%
same,"Volatile Fatty Acids (molar distribution, %): Acetate","[6]; Table III, dithiooxamide 25 ppm + copper sulfate .067 ppm, control 64",38%
same,Volatile Fatty Acid Carbon,"[6]; Table III, dithiooxamide 25 ppm + copper sulfate .067 ppm, control 125",114 μ moles/ml.
same,"Volatile Fatty Acids (molar distribution, %): Propionate","[6]; Table III, dithiooxamide 25 ppm + copper sulfate .333 ppm, control 15",21%
same,"Volatile Fatty Acids (molar distribution, %): Butyrate","[6]; Table III, dithiooxamide 25 ppm + copper sulfate .333 ppm, control 21",38%
same,"Volatile Fatty Acids (molar distribution, %): Acetate","[6]; Table III, dithiooxamide 25 ppm + copper sulfate .333 ppm, control 64",41%
same,Volatile Fatty Acid Carbon,"[6]; Table III, dithiooxamide 25 ppm + copper sulfate .333 ppm, control 125",132 μ moles/ml.
same,"Volatile Fatty Acids (molar distribution, %): Propionate","[6]; Table III, dithiooxamide 25 ppm, no added cobalt or copper, control 15",21%
same,"Volatile Fatty Acids (molar distribution, %): Butyrate","[6]; Table III, dithiooxamide 25 ppm, no added cobalt or copper, control 21",40%
same,"Volatile Fatty Acids (molar distribution, %): Acetate","[6]; Table III, dithiooxamide 25 ppm, no added cobalt or copper, control 64",39%
same,Volatile Fatty Acid Carbon,"[6]; Table III, dithiooxamide 25 ppm, no added cobalt or copper, control 125",119 μ moles/ml.
same,methane production (in words),[7]; Table II,would suppress methane production
same,inhibition at 5 ppm,"[7]; Table II, 5 ppm dithiooxamide, 4 h, read-out: Methane Inhibition (%)",12%
same,inhibition at 10 ppm,"[7]; Table II, 10 ppm dithiooxamide, 4 h, read-out: Methane Inhibition (%)",88%
same,inhibition at 25 ppm,"[7]; Table II, 25 ppm dithiooxamide, 4 h, read-out: Methane Inhibition (%)",96%
same,inhibition at 50 ppm,"[7]; Table II, 50 ppm dithiooxamide, 4 h, read-out: Methane Inhibition (%)",99%
same,Methane Inhibition (%),"[7]; Table III, dithiooxamide 25 ppm + cobalt sulfate .066 ppm",93%
same,inhibition at 25 ppm,"[7]; Table III, dithiooxamide 25 ppm, no added cobalt or copper, read-out: Methane Inhibition (%)",92%
same,methane inhibition on adding cobalt and copper (in words),[7]; [8],not affected by adding varying concentrations of cobalt and copper
